The target of one data set is T1, human GLP-1 receptor (Homo sapiens, UniProt P43220).
T1 construct: expressed in transfected cells; host or cells: BHK cells (parent BHKTS13), clone FCW467-12A/KZ10-1, with CRE luciferase
Description: GLP-1 receptor binding, 125I-GLP-1 displacement SPA on isolated membranes. As to conditions: displacement of 125I-GLP-1 from membranes; read-out: IC50 GLP-1R. The gist of the method: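 Test derivatives, serially diluted, competed with 125I-GLP-1(7-36)NH2 for the human GLP-1 receptor on BHK membranes, read by WGA-bead scintillation proximity after 2 h at 30°C, pH 7.4 HEPES/EGTA/MgCl2 buffer. Final serum albumin was either ≤0.001% or 2.0%; IC50 from non-linear fit.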
A general note: In a radioligand displacement assay an active substance lowers the binding of a labelled ligand.

Data set [1] is described as follows: Chemical stability assessment by RP-UPLC. Format: physicochemical. As to conditions: 333 μM, 8 mM phosphate buffer pH 7.3, 37° C. vs 5° C. The gist of the method:
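Purity loss = (purity after 14 days at 5° C. minus that at 37° C.) relative to the 5° C. value, purity being main-peak area % by RP-UPLC with UV at 215 nm. Samples were 333 μM in 8 mM phosphate, pH 7.3; gradient adjusted for outlying retention times.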

Molecules are shown by their SMILES. Numbered stars: 1 amine (or outer) side, 2 acyl side, 3 side chain; on linkers, the order of the positions; unused ones are H or OH. Square brackets hold non-standard residues; d marks the D form. Side chains are listed from the residue outwards. Peptide text beside a SMILES is read from it. * marks the point of attachment. C18 diacid = O=C(O)CCCCCCCCCCCCCCCCC(=O)*; γGlu = O=C(O)[C@H](CCC(=O)[*:2])N[*:1]; Ac4c = NC1(C(=O)O)CCC1; AEEA = NCCOCCOCC(=O)O; Aib = CC(C)(N)C(=O)O

T1 sequence (P43220 24-463): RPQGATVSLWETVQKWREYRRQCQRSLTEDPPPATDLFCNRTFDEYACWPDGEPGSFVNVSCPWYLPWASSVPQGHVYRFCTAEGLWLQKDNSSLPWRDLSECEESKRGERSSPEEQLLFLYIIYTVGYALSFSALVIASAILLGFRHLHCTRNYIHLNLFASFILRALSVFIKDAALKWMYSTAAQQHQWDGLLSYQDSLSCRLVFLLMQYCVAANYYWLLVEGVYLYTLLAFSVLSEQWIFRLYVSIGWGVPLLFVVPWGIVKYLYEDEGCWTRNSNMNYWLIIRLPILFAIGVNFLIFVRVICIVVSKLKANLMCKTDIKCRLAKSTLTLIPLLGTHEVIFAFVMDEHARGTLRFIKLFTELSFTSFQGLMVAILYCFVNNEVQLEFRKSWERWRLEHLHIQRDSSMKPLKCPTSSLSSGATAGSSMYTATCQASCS

In general, IC50 refers to the concentration at which inhibition is half-maximal. Turning to `CC(C)C[C@H](NC(=O)[C@H](Cc1ccc(O)cc1)NC(=O)[C@H](CCCCN)NC(=O)[C@H](CO)NC(=O)[C@H](CC(C)C)NC(=O)[C@H](CC(=O)O)NC(=O)[C@H](CO)NC(=O)[C@@H](NC(=O)[C@H](Cc1ccccc1)NC(=O)[C@@H](NC(=O)CNC(=O)[C@H](CCC(N)=O)NC(=O)C(C)(C)NC(=O)[C@@H](N)Cc1c[nH]cn1)[C@@H](C)O)[C@@H](C)O)C(=O)N[C@@H](CCC(=O)O)C(=O)N[C@@H](CO)C(=O)N[C@@H](CCCCN)C(=O)N[C@@H](CCCNC(=N)N)C(=O)N[C@@H](C)C(=O)N[C@@H](CCCNC(=N)N)C(=O)N[C@@H](CCC(=O)O)C(=O)N[C@@H](Cc1ccccc1)C(=O)N[C@H](C(=O)N[C@@H](CCC(N)=O)C(=O)N[C@@H](Cc1c[nH]c2ccccc12)C(=O)N[C@@H](CC(C)C)C(=O)N[C@@H](CC(C)C)C(=O)N[C@@H](CCCCNC(=O)CC[C@H](NC(=O)CC[C@H](NC(=O)[C@H](CO)NC(=O)[C@H](CCC(=O)O)NC(=O)[C@H](CO)NC(=O)CC[C@H](NC(=O)CC[C@H](NC(=O)CCCCCCCCCCCCCCCCC(=O)O)C(=O)O)C(=O)O)C(=O)O)C(=O)O)C(=O)N[C@H](C(N)=O)[C@@H](C)O)C(C)C` [Example 54, N^ε28-[(4S)-4-carboxy-4-[[(4S)-4-carboxy-4-[[(2S)-2-[[(2S)-4-carboxy-2-[[(2S)-2-[[(4S)-4-carboxy-4-[[(4S)-4-carboxy-4-(17-carboxyheptadecanoylamino)butanoyl]amino]butanoyl]amino]-3-hydroxypropanoyl]amino]butanoyl]amino]-3-hydroxypropanoyl]amino]butanoyl]amino]butanoyl]-[Aib2,Leu10,Glu15,Lys17,Arg20,Glu21,Leu27,Lys28]-Glucagon amide] (H-H[Aib]QGTFTSDLSKYLESKRAREFVQWLLK([γGlu-γGlu-Ser-Glu-Ser-γGlu-γGlu-C18 diacid])T-NH2; N-terminus assumed), at human GLP-1 receptor, the IC50 is 0.2 nM. In data set [1], the “Purity loss; 14 days at 37° C.” value amounted to 1%.

As to `CC(C)C[C@H](NC(=O)[C@H](CC(=O)O)NC(=O)[C@H](CC(C)C)NC(=O)[C@H](Cc1ccc(O)cc1)NC(=O)[C@H](CCCCN)NC(=O)[C@H](CO)NC(=O)[C@H](CC(C)C)NC(=O)[C@H](CC(=O)O)NC(=O)[C@H](CO)NC(=O)[C@@H](NC(=O)[C@H](Cc1ccccc1)NC(=O)[C@@H](NC(=O)CNC(=O)[C@H](CCC(N)=O)NC(=O)C1(NC(=O)[C@@H](N)Cc2c[nH]cn2)CCC1)[C@@H](C)O)[C@@H](C)O)C(=O)N[C@@H](CCCCN)C(=O)N[C@@H](CCCNC(=N)N)C(=O)N[C@@H](C)C(=O)N[C@@H](CCCNC(=N)N)C(=O)N[C@@H](CCC(=O)O)C(=O)N[C@@H](Cc1ccccc1)C(=O)N[C@H](C(=O)N[C@@H](CCC(N)=O)C(=O)N[C@@H](Cc1c[nH]c2ccccc12)C(=O)N[C@@H](CC(C)C)C(=O)N[C@@H](CC(C)C)C(=O)N[C@@H](CCCCNC(=O)CC[C@H](NC(=O)CC[C@H](NC(=O)COCCOCCNC(=O)COCCOCCNC(=O)CC[C@H](NC(=O)CC[C@H](NC(=O)CCCCCCCCCCCCCCCCC(=O)O)C(=O)O)C(=O)O)C(=O)O)C(=O)O)C(=O)N[C@H](C(N)=O)[C@@H](C)O)C(C)C` [Example 47, N^ε28-[(4S)-4-carboxy-4-[[(4S)-4-carboxy-4-[[2-[2-[2-[[2-[2-[2-[[(4S)-4-carboxy-4-[[(4S)-4-carboxy-4-(17-carboxyheptadecanoylamino)butanoyl]amino]butanoyl]amino]ethoxy]ethoxy]acetyl]amino]ethoxy]ethoxy]acetyl]amino]butanoyl]amino]butanoyl]-[Acb2,Leu10,Leu16,Lys17,Arg20,Glu21,Leu27,Lys28]-Glucagon amide] (H-H[Ac4c]QGTFTSDLSKYLDLKRAREFVQWLLK([γGlu-γGlu-AEEA-AEEA-γGlu-γGlu-C18 diacid])T-NH2; N-terminus assumed), the IC50 on human GLP-1 receptor amounted to 0.2 nM. In addition, the “Purity loss; 14 days at 37° C.” value in data set [1] turned out to be 3%.

`CC(C)C[C@H](NC(=O)[C@H](CC(C)C)NC(=O)[C@H](Cc1c[nH]c2ccccc12)NC(=O)[C@H](CCC(N)=O)NC(=O)[C@@H](NC(=O)[C@H](Cc1ccccc1)NC(=O)[C@H](CCC(=O)O)NC(=O)[C@H](CCCNC(=N)N)NC(=O)[C@H](C)NC(=O)[C@H](CCCNC(=N)N)NC(=O)[C@H](CCCNC(=N)N)NC(=O)[C@H](CO)NC(=O)[C@H](CC(=O)O)NC(=O)[C@H](CC(C)C)NC(=O)[C@H](Cc1ccc(O)cc1)NC(=O)[C@H](CCCCN)NC(=O)[C@H](CO)NC(=O)[C@H](CC(C)C)NC(=O)[C@H](CC(=O)O)NC(=O)[C@H](CO)NC(=O)[C@@H](NC(=O)[C@H](Cc1ccccc1)NC(=O)[C@@H](NC(=O)CNC(=O)[C@H](CCC(N)=O)NC(=O)C(C)(C)NC(=O)[C@@H](N)Cc1c[nH]cn1)[C@@H](C)O)[C@@H](C)O)C(C)C)C(=O)N[C@@H](CC(N)=O)C(=O)N[C@@H](CCCCNC(=O)CC[C@H](NC(=O)CC[C@H](NC(=O)COCCOCCNC(=O)COCCOCCNC(=O)CC[C@H](NC(=O)CCCCCCCCCCCCCCCCC(=O)O)C(=O)O)C(=O)O)C(=O)O)C(N)=O` [Example 12, N^ε29-[(4S)-4-carboxy-4-[[(4S)-4-carboxy-4-[[2-[2-[2-[[2-[2-[2-[[(4S)-4-carboxy-4-(17-carboxyheptadecanoylamino)butanoyl]amino]ethoxy]ethoxy]acetyl]amino]ethoxy]ethoxy]acetyl]amino]butanoyl]amino]butanoyl]-[Aib2,Leu10,Arg20,Glu21,Leu27,Lys29]-Glucagon amide] (H-H[Aib]QGTFTSDLSKYLDSRRAREFVQWLLNK([γGlu-γGlu-AEEA-AEEA-γGlu-C18 diacid])-NH2): the IC50 on human GLP-1 receptor is 0.5 nM. Further, the “Purity loss; 14 days at 37° C.” value in data set [1] is reported as 8%.

In the case of `CC(C)C[C@H](NC(=O)[C@H](CC(C)C)NC(=O)[C@H](Cc1c[nH]c2ccccc12)NC(=O)[C@H](CCC(N)=O)NC(=O)[C@@H](NC(=O)[C@H](Cc1ccccc1)NC(=O)[C@H](CCC(=O)O)NC(=O)[C@H](CCCNC(=N)N)NC(=O)[C@H](C)NC(=O)[C@H](CCCNC(=N)N)NC(=O)[C@H](CCCNC(=N)N)NC(=O)[C@H](CO)NC(=O)[C@H](CCC(=O)O)NC(=O)[C@H](CC(C)C)NC(=O)[C@H](Cc1ccc(O)cc1)NC(=O)[C@H](CCCCN)NC(=O)[C@H](CO)NC(=O)[C@H](CC(C)C)NC(=O)[C@H](CC(=O)O)NC(=O)[C@H](CO)NC(=O)[C@@H](NC(=O)[C@H](Cc1ccccc1)NC(=O)[C@@H](NC(=O)CNC(=O)[C@H](CCC(N)=O)NC(=O)C(C)(C)NC(=O)[C@@H](N)Cc1c[nH]cn1)[C@@H](C)O)[C@@H](C)O)C(C)C)C(=O)N[C@@H](CC(N)=O)C(=O)N[C@@H](CCCCNC(=O)CC[C@H](NC(=O)CC[C@H](NC(=O)COCCOCCNC(=O)CC[C@H](NC(=O)CCCCCCCCCCCCCCCCC(=O)O)C(=O)O)C(=O)O)C(=O)O)C(N)=O` [Example 40, N^ε29-[(4S)-4-carboxy-4-[[(4S)-4-carboxy-4-[[2-[2-[2-[[(4S)-4-carboxy-4-(17-carboxyheptadecanoylamino)butanoyl]amino]ethoxy]ethoxy]acetyl]amino]butanoyl]amino]butanoyl]-[Aib2,Leu10,Glu15,Arg20,Glu21,Leu27,Lys29]-Glucagon amide] (H-H[Aib]QGTFTSDLSKYLESRRAREFVQWLLNK([γGlu-γGlu-AEEA-γGlu-C18 diacid])-NH2; N-terminus assumed), the IC50 on human GLP-1 receptor is 0.4 nM. Besides, the “Purity loss; 14 days at 37° C.” value in data set [1] is given as 2%.

(Values after US9474790B2, “Stable, protracted GLP-1/glucagon receptor co-agonists for medical use” (Novo Nordisk A/S, priority 2013, dated 2016).)
